Laboratory results reported in US20250093329A1, “SCREENING OF COMPOUNDS” (THE UNIVERSITY OF TULSA, priority 2022, published 2025).
“Also recorded” adds a separate entry of the source.

Experiments:
BxPC3 = test: ATP levels by CellTiter-Glo, compound alone or with metabolic inhibitor (Table 1); assay type: cell-based; settings: compound 100 uM + 2DG (about 10-20 mM), DMEM + 10% FBS, two hour incubation, DMSO control
Source text: The improved method for identifying such compounds measures ATP levels as a function of light emitted by any ATP dependent luciferase or modified luciferases, i.e. luciferase derivatives. The method uses a conventional luminescent assay to determine the number of viable cells in a culture. The improvement provided by the present method results from pre-treating cells used in the assays with a metabolic inhibitor prior to treatment with the compound of interest, or switching the cells to a media formulated to force use of a specific metabolic pathway. Luminescent assays for determining cytotoxicity are well known in the art. […]
Following treatment of the control and test cells with the metabolic inhibitor (or switching to a new media), the method calls for addition of the compound to be screened for anti-cancer properties to the cells. […] Following completion of the selected time period, the ATP level within the cell is determined. ATP levels can be determined by luminescence according to standard measuring procedures, i.e. the luminescence level of the assay from the living cells treated with the two component composition is compared to the luminescence level of the assay from the living cells without the two component composition, i.e., the control experiment. […]

H293 = test: Cytotoxicity testing, CellTiter-Blue assay, 24 hour (FIG. 3); assay type: cell-based; settings: 100 μM, 24 hour compound incubation
Description: The cytotoxicity tests were carried out in the following manner. Living cells are known to convert resazurin to the fluorescent compound resorufin. Test systems which rely upon this reaction are commercially available. One such test is known at the Cell Titer Blue Cell Viability test assay from Promega. Cell cultures for each of the identified cancer lines were obtained from ATCC and maintained in Dulbecco's Modified Eagle Medium (DMEM) supplemented with 10% fetal bovine serum (FBS) and pen/strep. As known to those skilled in the art, DMEM typically includes the components identified below.
The test method provides for incubating the cell cultures at temperatures which correspond to the range of body temperatures experienced by the patient from which the cancer cells were obtained. Typically, incubation temperatures will be between the temperatures of 36.1° C. and 37.2° C. In most cases incubation will occur at 37° C. Additionally, the cell cultures are kept under an atmosphere which mimics cell conditions of the tumor within the patient's body. In most cases, the tumor microenvironment (TME) is characterized by hypoxia (low oxygen) and may also be characterized by hypercapnia (increased CO2). Hypercapnia results from decreased blood flow which limits CO2 elimination. Restricted CO2 elimination leads to increased HCO3^− conversion to CO2 in order to neutralize lactate as altered tumor cell metabolism produces more CO2 than normal. Normal tissue averages about 5% oxygen with oxygen ranges from about 3% to 7.4%. […] In the case of CO2, normocapnic is around 5% CO2, while hypercapnic can rise to 10% CO2. Therefore, to mimic the environment of the tumor the method utilizes an incubator designed to provide the optimal gaseous environment corresponding to that of the tumor. Thus, the incubator will be capable of maintaining an atmosphere having an oxygen content in the range of […] and a CO2 in the range of 1% to 10%.
After allowing for proliferation of the cells, the cells were distributed across a plurality of test wells containing from 100 μL DMEM plus 10% FBS and allowed to attach to the surface of the test wells. Typically, the time for attachment will require about 12 hours to about 18 hours. […] Following treatment of the cells with the N-benzyl sulfonamide or control, the toxicity of the compound to the cells will be determined by addition of a luminescing agent. […] Subsequently, the fluorescence of resazurin is measured by excitation at 560 nm and recording the emission at 590 nm within an instrument configured to measure fluorescence intensity. Two commercially available systems are the BioTek Cytation 5 plate reader and the Promega Glomax Multi+detection system. […]

Structure (SMILES): O=S(=O)(NCc1c[nH]c2ccccc12)c1ccc(Cl)cc1 [Compound 2, N-[(1H-indol-3-yl)methyl]-4-chlorobenzenesulfonamide]
- percent of control (POC), ATP luminescence (BxPC3): remarkable value; also recorded: effectiveness
- effectiveness, percent reduction in cell viability (FIG. 3) (H293): effective
